Measured values reported in US6143715A, “Hepatitis C inhibitor peptide analogues” (priority 1998, dated 2000).
Read-outs that look alike come from different tables or passages of the source. Starred links: 1 amine or outer side, 2 acyl side, 3 side chain; linkers in the order of their positions; H or OH if unused. Non-standard residues stand in square brackets, D forms with d. Residues, ends and D or L forms follow the SMILES beside them. ξ: configuration not given here. *: point of attachment. NH(1S-phenylethyl) = C[C@H](N*)c1ccccc1; Hyp = O=C(O)[C@@H]1C[C@@H](O)CN1; azaNva = CCCN(N[*:1])C(=O)[*:2]; AzaAla = CN(N[*:1])C(=O)[*:2]; X10 = C=CCN(N[*:1])C(=O)[*:2]; X7 = CCCCCN(N[*:1])C(=O)[*:2]; X2 = CCCN(N*)C(=O)OCc1ccccc1; X5 = CCCN(N*)C(=O)CCc1ccccc1; X6 = CCCC(N*)C(=O)CCc1ccccc1; X12 = C[C@H](N*)c1nnn[nH]1; Nva = CCC[C@H](N)C(=O)O; NHBn = c1ccc(CN*)cc1; ξNva = CCCC(N)C(=O)O; ξAbu = CCC(N)C(=O)O; Bn = c1ccc(C*)cc1; CF3 = FC(F)(F)*

Columns and labels:
[1] = system: HCV; conditions: as described in WO 97/06804; cited from earlier work
[2] = biological target: T1, HCV NS3 protease type 1b/NS4A cofactor peptide (Hepatitis C virus genotype 1b, UniProt P26663); assay: biochemical; set-up: species or system hepatitis C virus (HCV) genotype 1b
T1 construct: recombinant HCV NS3 protease (amino acid 1027 to 1206) was cloned; made in house; host or cells: E. coli BL21(DE3)pLysS
Source text: a) Cloning, expression and purification of the recombinant HCV NS3 protease type lb
Serum from an HCV-infected patient was obtained through an external collaboration (Bernard Willems MD, Hopital St-Luc, Montreal, Canada and Dr. Donald Murphy, Laboratoire de Sante Publique du Quebec, Ste-Anne de Bellevue, Canada). An engineered full-length cDNA template of the HCV genome was constructed from DNA fragments obtained by reverse transcription-PCR (RT-PCR) of serum RNA and using specific primers selected on the basis of homology between other genotype lb strains. […] A DNA fragment encoding the polyprotein precursor (NS3/NS4A/NS4B/NS5A/NS5B) was generated by PCR and introduced into eucaryotic expression vectors.
The NS3 protease expression in E. coli BL21(DE3)pLysS was induced by incubation with 1 mM IPTG for 3 h at 22° C. […] The cells were resuspended in lysis buffer (3.0 mL/g) consisting of 25 mM sodium phosphate, pH 7.5, 10% glycerol (v/v), 1 mM EDTA, 0.01% NP-40 and stored at -80° C. Cells were thawed and homogenized following the addition of 5 mM DTT. Magnesium chloride and DNase were then added to the homogenate at final concentrations of 20 mM and 20 μg/mL respectively. After a 25 min incubation at 4° C., the homogenate was sonicated and centrifuged at 15000× g for 30 min at 4° C. The pH of the supernatant was then adjusted to 6.5 using a 1M sodium phosphate solution.
Briefly, the supernatant from the bacterial extract was loaded on a SP HiTrap column (Pharmacia) previously equilibrated at a flow rate of 2 mL/min in buffer A (50 mM sodium phosphate, pH 6.5, 10% glycerol, 1 mM EDTA, 5 mM DTT, 0.01% NP-40). The column was then washed with buffer A containing 0.15 M NaCl and the protease eluted by applying 10 column volumes of a linear 0.15 to 0.3 M NaCl gradient. NS3 protease-containing fractions were pooled and diluted to a final NaCl concentration of 0.1 M. The enzyme was further purified on a HiTrap Heparin column (Pharmacia) equilibrated in buffer B (25 mM sodium phosphate, pH 7.5, 10% glycerol, 5 mM DTT, 0.01% NP-40). The sample was loaded at a flow rate of 3 mL/min. The column was then washed with buffer B containing 0.15 M NaCl at a flow rate of 1.5 mL/min. Two step washes were performed in the presence of buffer B containing 0.3 or 1M NaCl. […] Finally, the NS3 protease-containing fractions were applied on a Superdex 75 HiLoad 16/60 column (Pharmacia) equilibrated in buffer B containing 0.3 M NaCl.
The enzyme was stored at -80° C. and was thawed on ice and diluted just prior to use.
Recombinant HCV NS3 Protease/NS4A Cofactor Peptide Radiometric Assay
The enzyme was stored at -80° C., thawed on ice and diluted just prior to use in the assay buffer containing the NS4A cofactor peptide.
The substrate used for the NS3 protease/[…] cofactor peptide radiometric assay, DDIVPC-SMSYTW, is cleaved between the cysteine and the serine residues by the enzyme. The sequence DDIVPC-SMSYTW corresponds to the NS5A/NS5B natural cleavage site in which the cysteine residue in […] has been substituted for a proline. […] (molar ratio enzyme: cofactor 1:100) in the absence or presence of inhibitors. The separation of substrate from products is performed by adding avidin-coated agarose beads to the assay mixture followed by filtration.
Assay buffer: 50 mM Tris HCl, pH 7.5, 30% (w/v) glycerol, 1 mg/mL BSA, 1 mM TCEP (TCEP added just prior to use from a 1 M stock solution in water)
Substrate: […], […] final concentration (from a 2 mM stock solution in DMSO stored at -20° C. to avoid oxidation).

[3] = biological target: T2, human leukocyte elastase (Homo sapiens, UniProt P08246); assay: Specificity assay, human leukocyte elastase (pNA substrate); assay type: biochemical
T2 sequence (P08246 30-267): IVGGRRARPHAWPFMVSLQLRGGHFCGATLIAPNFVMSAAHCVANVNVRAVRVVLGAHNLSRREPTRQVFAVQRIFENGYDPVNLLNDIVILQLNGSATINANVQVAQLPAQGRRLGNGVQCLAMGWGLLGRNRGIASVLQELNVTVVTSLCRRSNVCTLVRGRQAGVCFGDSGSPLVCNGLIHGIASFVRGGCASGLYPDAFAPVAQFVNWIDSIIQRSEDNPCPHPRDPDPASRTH
Procedure: The specificity of the compounds was determined against a variety of serine proteases: human leukocyte elastase, porcine pancreatic elastase and bovine pancreatic α-chymotrypsin and one cysteine protease: human liver cathepsin B. In all cases a 96-well plate format protocol using a […] p-nitroanilide (pNA) substrate specific for each enzyme was used. Each assay included a 1 h enzyme-inhibitor pre-incubation at 30° C. followed by addition of substrate and hydrolysis to ≈30% conversion as measured on a UV Thermomax® microplate reader. Substrate concentrations were kept as low as possible compared to KM to reduce substrate competition. […] The final conditions for each assay were as follows:
(§1) 50 mM Tris-HCl pH 8, 0.5 M Na2 SO4, 50 mM NaCl, 0.1 mM EDTA, 3% DMSO, 0.01% Tween-20 with;
All other specificity assays were performed in a similar fashion.
(§2) The percentage of inhibition was calculated using the formula:
(§3) [1-(UVinh -UVblank)/(UVctl -UVblank))]×100

[4] = biological target: porcine pancreatic elastase (Sus scrofa, UniProt P00772); assay: Specificity assay, porcine pancreatic elastase (pNA substrate); assay type: biochemical
Procedure: The specificity of the compounds was determined against a variety of serine proteases: human leukocyte elastase, porcine pancreatic elastase and bovine pancreatic α-chymotrypsin and one cysteine protease: human liver cathepsin B. In all cases a 96-well plate format protocol using a calorimetric p-nitroanilide (pNA) substrate specific for each enzyme was used. Each assay included a 1 h enzyme-inhibitor pre-incubation at 30° C. followed by addition of substrate and hydrolysis to ≈30% conversion as measured on a UV Thermomax® microplate reader. Substrate concentrations were kept as low as possible compared to KM to reduce substrate competition. […] The final conditions for each assay were as follows:
A representative example is summarized below for porcine pancreatic elastase:
In a polystyrene flat-bottom 96-well plate were added using a Biomek liquid handler (Beckman):
40 μL of assay buffer (50 mM Tris-HCl pH 8, 50 mM NaCl, 0.1 mM EDTA);
20 μL of enzyme solution (50 mM Tris-HCl pH 8, 50 mM NaCl, 0.1 mM EDTA, 0.02% Tween-20, 40 nM porcine pancreatic elastase); and

[5] = biological target: bovine pancreatic α-chymotrypsin (Bos taurus, UniProt P00766, DEL14-15/DEL147-148); assay: Specificity assay, bovine pancreatic α-chymotrypsin (pNA substrate); assay type: biochemical; conditions: 1 h enzyme-inhibitor pre-incubation at 30° C., Succ-AAPF-pNA
Procedure: The final conditions for each assay were as follows:
as §1, §2, §3

[6] = biological target: human liver cathepsin B (Homo sapiens, UniProt P07858); assay: biochemical
Procedure: The specificity of the compounds was determined against a variety of serine proteases: human leukocyte elastase, porcine pancreatic elastase and bovine pancreatic α-chymotrypsin and one cysteine protease: human liver cathepsin B. In all cases a 96-well plate format protocol using a calorimetric p-nitroanilide (pNA) substrate specific for each enzyme was used. Each assay included a 1 h enzyme-inhibitor pre-incubation at 30° C. followed by addition of substrate and hydrolysis to ≈30% conversion as measured on a UV Thermomax® microplate reader. Substrate concentrations were kept as low as possible compared to KM to reduce substrate competition.

[7] = biological target: NS3 protease (Hepatitis C virus genotype 1b, UniProt P26663); assay: Inhibition of NS3 protease by N-terminal cleavage product; assay type: biochemical; conditions: N-terminal cleavage product of an analogue of a natural substrate
[8] = 1 h enzyme-inhibitor pre-incubation at 30° C., Succ-AAV-pNA
[9] = 1 h enzyme-inhibitor pre-incubation at 30° C., Succ-AAA-pNA

T1 sequence (P26663 1027-1206, other chains not shown): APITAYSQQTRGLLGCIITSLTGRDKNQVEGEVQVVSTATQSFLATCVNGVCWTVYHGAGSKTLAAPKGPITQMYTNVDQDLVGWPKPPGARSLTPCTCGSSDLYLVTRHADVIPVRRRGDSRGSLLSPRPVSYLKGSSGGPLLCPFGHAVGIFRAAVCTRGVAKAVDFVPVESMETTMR
Sequence of porcine pancreatic elastase (P00772 27-266): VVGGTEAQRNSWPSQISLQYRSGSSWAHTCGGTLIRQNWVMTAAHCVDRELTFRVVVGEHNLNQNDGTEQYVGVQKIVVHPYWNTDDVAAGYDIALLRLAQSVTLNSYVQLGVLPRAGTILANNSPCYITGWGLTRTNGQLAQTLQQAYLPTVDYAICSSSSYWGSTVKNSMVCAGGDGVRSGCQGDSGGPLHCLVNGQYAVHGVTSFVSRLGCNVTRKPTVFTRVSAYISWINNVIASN
Sequence of NS3 protease (P26663 1027-1206): as the sequence (P26663 1027-1206, other chains not shown) above

Compound	IC50 [2] [µM]	IC50 [3, 8] [µM]	also measured
Nc1ccn([C@@H]2CS[C@H](CO)O2)c(=O)n1 (single isomer, unassigned) [3TC, (-) enantiomer of the nucleoside analogue cytosine-1,3-oxathiolane]	–	–	active against HCV [1]: active against HCV
CCCC(NC(=O)[C@@H]1C[C@@H](OCc2ccccc2)CN1C(=O)[C@@H](NC(=O)[C@@H](NC(=O)[C@@H](CCC(=O)O)NC(=O)[C@H](CC(=O)O)NC(C)=O)[C@@H](C)CC)C(C)C)P(=O)(Oc1ccccc1)Oc1ccccc1 (single isomer, unassigned) [Compound 301]	–	–	IC50 ([2]; IC50: concentration required to obtain 50% inhibition in the NS3 protease/NS4A cofactor peptide radiometric assay, enzyme:cofactor 1:100, 40 min at 23° C.): 0.029 µM; IC50 [3]: < 0.6 µM; IC50 [4]: < 0.6 µM; IC50 [5]: 3 µM; IC50 [6]: > 300 µM
CCC(NC(=O)[C@@H]1C[C@@H](OCc2ccccc2)CN1C(=O)[C@@H](NC(=O)[C@@H](NC(=O)[C@@H](CCC(=O)O)NC(=O)[C@H](CC(=O)O)NC(C)=O)[C@@H](C)CC)C(C)C)C(=O)C(F)(F)F (stereo partly shown) [Compound 101] (Ac-D[dE]IV[Hyp](Bn)[ξAbu]-CF3)	9.4	< 1.2	–
CCCC(C=O)NC(=O)[C@@H]1C[C@@H](OCc2ccccc2)CN1C(=O)[C@@H](NC(=O)[C@@H](NC(=O)[C@@H](CCC(=O)O)NC(=O)[C@H](CC(=O)O)NC(C)=O)[C@@H](C)CC)C(C)C (stereo partly shown) [Compound 104] (Ac-D[dE]IV[Hyp](Bn)[ξNva]-aldehyde)	0.14	7	IC50 [4, 9]: 8 µM; IC50 [5]: 8 µM
CCCC(NC(=O)[C@@H]1C[C@@H](OCc2ccccc2)CN1C(=O)[C@@H](NC(=O)[C@@H](NC(=O)[C@@H](CCC(=O)O)NC(=O)[C@H](CC(=O)O)NC(C)=O)[C@@H](C)CC)C(C)C)C(=O)CCc1ccccc1 (stereo partly shown) [Compound 106] (Ac-D[dE]IV[Hyp](Bn)-X6)	5.4	–	IC50 [3]: 16 µM
CCC[C@H](NC(=O)[C@@H]1C[C@@H](OCc2ccccc2)CN1C(=O)[C@@H](NC(=O)[C@@H](NC(=O)[C@@H](CCC(=O)O)NC(=O)[C@H](CC(=O)O)NC(C)=O)[C@@H](C)CC)C(C)C)C(=O)N[C@@H](C)c1ccccc1 [Compound 108] (Ac-D[dE]IV[Hyp](Bn)[Nva]-{NH(1S-phenylethyl)})	0.71	3	IC50 [4, 9]: > 300 µM; IC50 [5]: > 300 µM
CCCC(NC(=O)[C@@H]1C[C@@H](OCc2ccccc2)CN1C(=O)[C@@H](NC(=O)[C@@H](NC(C)=O)C1CCCCC1)C(C)C)C(=O)C(=O)NCc1ccccc1 (stereo partly shown) [Compound 109]	23	2	–
CCCN(NC(=O)[C@@H]1C[C@@H](OCc2ccccc2)CN1C(=O)[C@@H](NC(=O)[C@@H](NC(=O)[C@@H](CCC(=O)O)NC(=O)[C@H](CC(=O)O)NC(C)=O)[C@@H](C)CC)C(C)C)C(=O)NCC(=O)OCC [Compound 201] (Ac-D[dE]IV[Hyp](Bn)[azaNva]G-OEt)	3.9	27.4	IC50 [4, 9]: 168 µM
CCCN(NC(=O)[C@@H]1C[C@@H](OCc2ccccc2)CN1C(=O)[C@@H](NC(=O)[C@@H](NC(=O)[C@@H](CCC(=O)O)NC(=O)[C@H](CC(=O)O)NC(C)=O)[C@@H](C)CC)C(C)C)C(=O)CCc1ccccc1 [Compound 202] (Ac-D[dE]IV[Hyp](Bn)-X5)	0.63	5.5	–
CCCN(NC(=O)[C@@H]1C[C@@H](OCc2ccccc2)CN1C(=O)[C@@H](NC(=O)[C@@H](NC(=O)[C@@H](CCC(=O)O)NC(=O)[C@H](CC(=O)O)NC(C)=O)[C@@H](C)CC)C(C)C)C(=O)OCc1ccccc1 [Compound 206] (Ac-D[dE]IV[Hyp](Bn)-X2)	0.79	< 0.6	IC50 [4, 9]: < 0.6 µM
CCCN(NC(=O)[C@@H]1C[C@@H](OCc2ccccc2)CN1C(=O)[C@@H](NC(=O)[C@@H](NC(C)=O)C1CCCCC1)C(C)C)C(=O)N[C@@H](C)c1ccccc1 [Compound 215]	45	5	–
CCCCCN(NC(=O)[C@@H]1C[C@@H](OCc2ccccc2)CN1C(=O)[C@@H](NC(=O)[C@@H](NC(=O)[C@@H](CCC(=O)O)NC(=O)[C@H](CC(=O)O)NC(C)=O)[C@@H](C)CC)C(C)C)C(=O)N[C@@H](C)c1ccccc1 [Compound 219] (Ac-D[dE]IV[Hyp](Bn)[X7]-{NH(1S-phenylethyl)})	0.43	151	–
CC[C@H](C)[C@H](NC(=O)[C@@H](CCC(=O)O)NC(=O)[C@H](CC(=O)O)NC(C)=O)C(=O)N[C@H](C(=O)N1C[C@H](OCc2ccccc2)C[C@H]1C(=O)NN(C)C(=O)N[C@@H](C)c1ccccc1)C(C)C [Compound 221] (Ac-D[dE]IV[Hyp](Bn)[AzaAla]-{NH(1S-phenylethyl)})	0.52	168	–
CCCN(NC(=O)[C@@H]1C[C@@H](OCc2ccccc2)CN1C(=O)[C@@H](NC(=O)[C@@H](NC(=O)[C@@H](CCC(=O)O)NC(=O)[C@H](CC(=O)O)NC(C)=O)[C@@H](C)CC)C(C)C)C(=O)N[C@@H](C)c1nnn[nH]1 [Compound 233] (Ac-D[dE]IV[Hyp](Bn)[azaNva]-X12)	1.5	–	–
C=CCN(NC(=O)[C@@H]1C[C@@H](OCc2ccccc2)CN1C(=O)[C@@H](NC(=O)[C@@H](NC(=O)[C@@H](CCC(=O)O)NC(=O)[C@H](CC(=O)O)NC(C)=O)[C@@H](C)CC)C(C)C)C(=O)NCc1ccccc1 [Compound 234] (Ac-D[dE]IV[Hyp](Bn)[X10]-NHBn)	3.7	–	–
Ac-DDIVPC-OH [Ac-D-D-I-V-P-C-OH]	–	–	inhibitory to the NS3 protease [7]: inhibitory
